Assay results published in ChEMBL document CHEMBL4373695, “Structure-Based Design of 5-Methylpyrimidopyridone Derivatives as New Wild-Type Sparing Inhibitors of the Epidermal Growth Factor Receptor Triple Mutant (EGFRL858R/T790M/C797S)” (J Med Chem, 2019).
One block for each compound: values may come before it. The source made the active and inactive calls. No cut-off for these calls is given here.

Key:
[1] = molecular target: T1, Epidermal growth factor receptor (Homo sapiens, UniProt P00533); assay: Inhibition of wild-type EGFR (unknown origin) using Poly(Glu,Tyr) 4:1 as substrate after 60 mins by ELISA
T1 sequence (P00533 whole entry, the tested form may be a part): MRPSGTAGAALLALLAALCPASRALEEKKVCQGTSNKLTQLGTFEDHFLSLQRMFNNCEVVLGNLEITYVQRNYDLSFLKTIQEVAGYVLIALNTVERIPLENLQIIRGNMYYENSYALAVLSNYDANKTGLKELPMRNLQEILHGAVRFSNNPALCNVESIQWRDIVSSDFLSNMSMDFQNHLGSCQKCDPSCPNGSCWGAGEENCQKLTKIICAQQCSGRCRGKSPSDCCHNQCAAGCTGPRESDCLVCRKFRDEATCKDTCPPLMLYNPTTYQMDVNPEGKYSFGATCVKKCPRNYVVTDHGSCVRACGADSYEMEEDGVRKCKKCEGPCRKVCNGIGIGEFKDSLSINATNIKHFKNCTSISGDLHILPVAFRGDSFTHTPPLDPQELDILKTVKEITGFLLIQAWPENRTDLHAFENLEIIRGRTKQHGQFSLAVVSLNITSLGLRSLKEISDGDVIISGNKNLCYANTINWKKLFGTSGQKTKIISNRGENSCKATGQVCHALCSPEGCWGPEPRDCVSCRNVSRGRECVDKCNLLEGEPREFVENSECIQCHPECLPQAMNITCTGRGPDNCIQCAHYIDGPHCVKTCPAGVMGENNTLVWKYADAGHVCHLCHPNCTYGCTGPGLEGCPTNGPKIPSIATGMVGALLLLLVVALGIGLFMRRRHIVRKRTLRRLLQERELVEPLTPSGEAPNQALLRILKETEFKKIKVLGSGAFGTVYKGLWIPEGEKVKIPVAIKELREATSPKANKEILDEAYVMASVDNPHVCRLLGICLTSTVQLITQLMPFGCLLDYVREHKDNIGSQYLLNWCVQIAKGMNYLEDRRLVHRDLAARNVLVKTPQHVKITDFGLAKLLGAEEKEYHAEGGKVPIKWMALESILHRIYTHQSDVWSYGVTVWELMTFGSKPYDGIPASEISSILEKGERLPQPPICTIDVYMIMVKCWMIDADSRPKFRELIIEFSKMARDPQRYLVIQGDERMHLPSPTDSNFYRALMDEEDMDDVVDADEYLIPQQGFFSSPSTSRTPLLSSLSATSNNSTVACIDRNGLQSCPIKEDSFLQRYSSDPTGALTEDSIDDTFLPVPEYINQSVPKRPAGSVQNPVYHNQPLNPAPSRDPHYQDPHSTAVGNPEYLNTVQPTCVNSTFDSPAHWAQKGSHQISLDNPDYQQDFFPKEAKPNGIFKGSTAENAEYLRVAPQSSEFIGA

[2] = molecular target: Epidermal growth factor receptor (Homo sapiens, UniProt P00533, C797S/L858R/T790M); assay: (§1) Inhibition of human C-terminal His-tagged and N-terminal GST-tagged EGFR L858R/T790M/C797S triple mutant ( 668 to 1210 amino acids) expressed in baculovirus infected Sf9 insect cells using Poly(Glu,Tyr) 4:1 as substrate after 60 mins by ELISA
Epidermal growth factor receptor (Homo sapiens, UniProt P00533, C797S/L858R/T790M), sequence (P00533 25-1210 T790M/C797S/L858R limits assumed): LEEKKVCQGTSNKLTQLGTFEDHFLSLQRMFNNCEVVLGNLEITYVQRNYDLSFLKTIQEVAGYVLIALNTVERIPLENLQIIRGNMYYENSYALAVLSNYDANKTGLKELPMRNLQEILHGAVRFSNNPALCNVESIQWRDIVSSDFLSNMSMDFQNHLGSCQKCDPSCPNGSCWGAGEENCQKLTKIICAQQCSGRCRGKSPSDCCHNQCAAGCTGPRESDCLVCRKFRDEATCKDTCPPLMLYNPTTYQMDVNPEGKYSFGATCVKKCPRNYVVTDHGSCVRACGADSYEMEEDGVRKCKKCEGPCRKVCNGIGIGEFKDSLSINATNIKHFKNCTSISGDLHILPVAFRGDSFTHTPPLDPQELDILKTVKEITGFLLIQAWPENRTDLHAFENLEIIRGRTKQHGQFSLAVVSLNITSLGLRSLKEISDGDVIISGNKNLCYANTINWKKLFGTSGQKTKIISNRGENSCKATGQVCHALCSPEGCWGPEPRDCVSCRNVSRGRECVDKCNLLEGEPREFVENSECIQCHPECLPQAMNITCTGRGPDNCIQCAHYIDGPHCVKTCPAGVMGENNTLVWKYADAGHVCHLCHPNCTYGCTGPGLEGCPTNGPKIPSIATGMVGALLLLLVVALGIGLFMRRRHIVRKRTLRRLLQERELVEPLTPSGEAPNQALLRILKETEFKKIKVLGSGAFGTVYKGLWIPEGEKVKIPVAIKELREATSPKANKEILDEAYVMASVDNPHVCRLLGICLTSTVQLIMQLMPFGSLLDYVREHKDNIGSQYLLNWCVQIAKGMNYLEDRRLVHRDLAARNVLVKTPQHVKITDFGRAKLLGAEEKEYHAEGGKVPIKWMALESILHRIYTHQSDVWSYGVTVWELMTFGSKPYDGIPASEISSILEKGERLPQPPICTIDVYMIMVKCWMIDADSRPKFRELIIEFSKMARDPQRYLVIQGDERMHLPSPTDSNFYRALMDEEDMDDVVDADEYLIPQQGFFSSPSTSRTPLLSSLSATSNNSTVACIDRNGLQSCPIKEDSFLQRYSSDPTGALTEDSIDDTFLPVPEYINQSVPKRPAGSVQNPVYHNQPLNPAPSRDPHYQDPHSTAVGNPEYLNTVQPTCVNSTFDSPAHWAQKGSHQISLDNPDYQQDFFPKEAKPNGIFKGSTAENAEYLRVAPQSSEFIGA

[3] = molecular target: Epidermal growth factor receptor (Homo sapiens, UniProt P00533, T790M/C797S/L858R); assay: as §1; conditions: sf9
Epidermal growth factor receptor (Homo sapiens, UniProt P00533, T790M/C797S/L858R), sequence (P00533 25-1210 T790M/C797S/L858R limits assumed): as above

[4] = Metabolic stability in rat liver microsomes preincubated for 5 mins followed by NADPH addition and measured after 5 to 45 mins by LC/MS analysis; format: ADME, Microsome
[5] = test system: Epidermal growth factor receptor (Homo sapiens), P00533 [L858R,T790M,C797S]; assay: Inhibition of EGFR L858R/T790M/C797S triple mutant (unknown origin) transfected in mouse BAF3 cells assessed as reduction in EGF-induced EGFR phosphorylation at 0.1 to 3 uM by Western blot analysis; format: cell-based
Epidermal growth factor receptor (Homo sapiens), P00533 [L858R,T790M,C797S], sequence (P00533 whole entry T790M/C797S/L858R): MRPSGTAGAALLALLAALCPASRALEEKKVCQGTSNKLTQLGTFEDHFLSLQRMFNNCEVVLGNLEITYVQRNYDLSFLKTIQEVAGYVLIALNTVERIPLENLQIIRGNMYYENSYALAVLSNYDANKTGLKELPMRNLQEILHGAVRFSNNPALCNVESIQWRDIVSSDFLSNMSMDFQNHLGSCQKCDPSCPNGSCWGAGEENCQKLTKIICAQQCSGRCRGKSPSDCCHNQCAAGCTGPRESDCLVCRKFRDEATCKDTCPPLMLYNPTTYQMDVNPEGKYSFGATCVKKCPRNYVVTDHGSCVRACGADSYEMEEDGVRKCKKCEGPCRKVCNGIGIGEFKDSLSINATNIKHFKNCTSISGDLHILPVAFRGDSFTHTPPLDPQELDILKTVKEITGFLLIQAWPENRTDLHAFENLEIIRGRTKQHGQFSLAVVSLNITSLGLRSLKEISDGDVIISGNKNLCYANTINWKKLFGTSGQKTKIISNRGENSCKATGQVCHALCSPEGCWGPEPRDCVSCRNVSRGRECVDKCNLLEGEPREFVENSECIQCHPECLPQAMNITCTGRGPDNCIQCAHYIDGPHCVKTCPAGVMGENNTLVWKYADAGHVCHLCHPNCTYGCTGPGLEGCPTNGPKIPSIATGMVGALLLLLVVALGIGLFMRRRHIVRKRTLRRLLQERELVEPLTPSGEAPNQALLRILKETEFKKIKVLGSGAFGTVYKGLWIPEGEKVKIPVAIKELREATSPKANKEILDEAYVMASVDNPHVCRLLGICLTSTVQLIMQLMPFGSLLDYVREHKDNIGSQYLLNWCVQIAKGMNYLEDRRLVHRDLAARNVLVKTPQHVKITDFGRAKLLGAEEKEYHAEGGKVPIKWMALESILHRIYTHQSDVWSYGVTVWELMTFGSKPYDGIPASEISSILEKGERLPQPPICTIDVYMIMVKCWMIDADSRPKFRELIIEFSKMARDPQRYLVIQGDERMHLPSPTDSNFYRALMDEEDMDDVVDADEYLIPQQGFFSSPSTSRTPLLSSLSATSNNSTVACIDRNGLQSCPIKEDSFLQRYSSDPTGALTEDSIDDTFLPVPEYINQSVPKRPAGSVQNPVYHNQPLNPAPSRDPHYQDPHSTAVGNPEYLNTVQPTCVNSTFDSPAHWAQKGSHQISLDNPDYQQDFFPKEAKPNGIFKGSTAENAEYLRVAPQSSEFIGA

[6] = molecular target: T1, Epidermal growth factor receptor; assay: Inhibition of wild-type EGFR (unknown origin) transfected in human A431 cells assessed as reduction in EGF-induced EGFR phosphorylation at 0.1 to 3 uM by Western blot analysis; format: cell-based
BaF3 = assay: Antiproliferative activity against mouse BAF3 cells harboring EGFR L858R/T790M/C797S triple mutant after 72 hrs by resazurin dye-based fluorescence assay; format: functional, cell-based; conditions: BaF3, 72 h
[7] = Aqueous solubility of the compound at 2 mg at pH 7.4 after 24 hrs by LC-MS/MS analysis; format: physicochemical; conditions: pH 7.4, 24 h
[8] = Permeability of the compound in human Caco2 cells at 10 uM after 120 mins by LC-MS/MS analysis; format: ADME, cell-based; conditions: caco-2, 2 h

SMILES: N#Cc1ccc(O)c(-c2nc(NCc3cnccn3)c3ccccc3n2)c1
IC50 [1]: > 1000 nM
IC50 [2]: 38.7 nM

SMILES: CCC(=O)N1CCC[C@@H](n2c(=O)c(-c3ccccc3)c(C)c3cnc(Nc4ccc(N5CCN(C)CC5)c(C)c4)nc32)C1
IC50 [1]: > 1000 nM
IC50 [2]: > 1000 nM

SMILES: CCC(=O)N1CCC[C@@H](n2c(=O)c(-c3ccc(Cl)cc3)c(C)c3cnc(Nc4ccc(N5CCN(C)CC5)c(C)c4)nc32)C1
IC50 [1]: > 1000 nM
IC50 [2]: > 1000 nM

SMILES: CCC(=O)N1CCC[C@@H](n2c(=O)c(-c3cccc(Cl)c3)c(C)c3cnc(Nc4ccc(N5CCN(C)CC5)c(C)c4)nc32)C1
IC50 [1]: > 1000 nM
IC50 [2]: > 1000 nM

SMILES: CCC(=O)N[C@H]1CC[C@@H](n2c(=O)c(-c3ccccc3Cl)c(C)c3cnc(Nc4ccc(N5CCN(C)CC5)c(C)c4)nc32)CC1 (stereo in doubt; 8c-A)
IC50 [1]: > 1000 nM
IC50 [2]: 519 nM

SMILES: CCC(=O)N[C@H]1CC[C@@H](n2c(=O)c(-c3ccccc3Cl)c(C)c3cnc(Nc4ccc(N5CCN(C)CC5)c(C)c4)nc32)CC1 (stereo in doubt; 8c-B)
IC50 [1]: 169 nM
IC50 [2]: 27.7 nM

SMILES: CCC(=O)N1CCC[C@H](n2c(=O)c(-c3ccccc3Cl)c(C)c3cnc(Nc4ccc(N5CCN(C)CC5)c(C)c4)nc32)C1 (stereo in doubt; 8e-A)
IC50 [1]: > 1000 nM
IC50 [2]: > 1000 nM

SMILES: CCC(=O)N1CCC[C@H](n2c(=O)c(-c3ccccc3Cl)c(C)c3cnc(Nc4ccc(N5CCN(C)CC5)c(C)c4)nc32)C1 (stereo in doubt; 8e-B)
IC50 [1]: > 1000 nM
IC50 [3]: > 1000 nM

SMILES: CCC(=O)N1CCC[C@@H](n2c(=O)c(-c3ccccc3Cl)c(C)c3cnc(Nc4ccc(N5CCN(C)CC5)c(C)c4)nc32)C1 (stereo in doubt; 8f-A)
IC50 [1]: > 1000 nM
IC50 [2]: > 1000 nM

SMILES: CCC(=O)N1CCC[C@@H](n2c(=O)c(-c3ccccc3Cl)c(C)c3cnc(Nc4ccc(N5CCN(C)CC5)c(C)c4)nc32)C1 (stereo in doubt; 8f-B)
IC50 [1]: > 1000 nM
IC50 [2]: 65.1 nM

SMILES: CCC(=O)N1CC[C@@H](n2c(=O)c(-c3ccccc3Cl)c(C)c3cnc(Nc4ccc(N5CCN(C)CC5)c(C)c4)nc32)C1 (stereo in doubt; 8g-A)
IC50 [1]: > 1000 nM
IC50 [2]: > 1000 nM

SMILES: CCC(=O)N1CC[C@@H](n2c(=O)c(-c3ccccc3Cl)c(C)c3cnc(Nc4ccc(N5CCN(C)CC5)c(C)c4)nc32)C1 (stereo in doubt; 8g-B)
IC50 [1]: > 1000 nM
IC50 [2]: 81.7 nM

SMILES: CCC(=O)N1CCC[C@@H](n2c(=O)c(-c3ccccc3Br)c(C)c3cnc(Nc4ccc(N5CCN(C)CC5)c(C)c4)nc32)C1 (stereo in doubt; 8l-A)
IC50 [1]: > 1000 nM
IC50 [2]: 498 nM

SMILES: CCC(=O)N1CCC[C@@H](n2c(=O)c(-c3ccccc3Br)c(C)c3cnc(Nc4ccc(N5CCN(C)CC5)c(C)c4)nc32)C1 (stereo in doubt; 8l-B)
IC50 [1]: > 1000 nM
IC50 [2]: 56.1 nM

SMILES: CCC(=O)N1CCC[C@@H](n2c(=O)c(-c3ccccc3C)c(C)c3cnc(Nc4ccc(N5CCN(C)CC5)c(C)c4)nc32)C1 (stereo in doubt; 8m-A)
IC50 [1]: > 1000 nM
IC50 [2]: 588 nM

SMILES: CCC(=O)N1CCC[C@@H](n2c(=O)c(-c3ccccc3C)c(C)c3cnc(Nc4ccc(N5CCN(C)CC5)c(C)c4)nc32)C1 (stereo in doubt; 8m-B)
IC50 [1]: > 1000 nM
IC50 [2]: 228 nM

SMILES: CCC(=O)N1CCC[C@@H](n2c(=O)c(-c3cc(F)ccc3Cl)c(C)c3cnc(Nc4ccc(N5CCN(C)CC5)c(C)c4)nc32)C1 (stereo in doubt; 8p-A)
IC50 [1]: > 1000 nM
IC50 [2]: 207 nM

SMILES: CCC(=O)N1CCC[C@@H](n2c(=O)c(-c3cc(F)ccc3Cl)c(C)c3cnc(Nc4ccc(N5CCN(C)CC5)c(C)c4)nc32)C1 (stereo in doubt; 8p-B)
IC50 [1]: > 1000 nM
IC50 [2]: 37.1 nM

SMILES: CCC(=O)N1CCC[C@@H](n2c(=O)c(-c3ccc(F)cc3Cl)c(C)c3cnc(Nc4ccc(N5CCN(C)CC5)c(C)c4)nc32)C1 (stereo in doubt; 8q-A)
IC50 [1]: > 1000 nM
IC50 [2]: 224 nM

SMILES: CCC(=O)N1CCC[C@@H](n2c(=O)c(-c3ccc(F)cc3Cl)c(C)c3cnc(Nc4ccc(N5CCN(C)CC5)c(C)c4)nc32)C1 (stereo in doubt; 8q-B)
IC50 [1]: > 1000 nM
IC50 [2]: 88.6 nM

Stability [4]: Unstable
inhibition [5]: Active
inhibition (INH) [6]: Not Active
IC50 (BaF3): 662 nM
solubility [7]: Soluble
permeability [8]: Permeable
SMILES: CCC(=O)N1CCC[C@@H](n2c(=O)c(-c3cccc(F)c3Cl)c(C)c3cnc(Nc4ccc(N5CCN(C)CC5)c(C)c4)nc32)C1 (stereo in doubt; 8r-B)
